# Test results taken from patent EP0494754A1, “3-hydroxypyridin-4-one derivatives as pharmaceutical compositions” (BRITISH TECHNOLOGY GROUP LTD, priority 1991, dated 1992).
# Like-named read-outs stand apart in the source and are kept apart here.
# How the values were obtained:
# Format in all cases: cell-based
# P. falciparum [1] = assay: Inhibition of growth of P. falciparum in red cell culture (tritiated hypoxanthine uptake, continuous exposure to chelator); settings: for minimal effective concentration: Plasmodium falciparum, further study, method not detailed, read-out: dosage level at which marked growth inhibition was observed; for level of activity against red blood cells parasitized by P. falciparum (relative ranking): comparison between compounds, no figures; for growth inhibition of P. falciparum: 50 µmol/l iron binding concentration, after 30 hours, Figure 2; for percentage inhibition of growth after 30 hours as compared with the controls: iron binding concentration of 100 µmol of iron per litre, Figure 1
# Method: (A) An uncloned strain of P. falciparum, ITO4, was grown on blood group O red cells using a modification of the method described by Trager et al in Science, 1976, […], 673. An atmopshere consisting of 1% oxygen, 3% carbon dioxide and 96% nitrogen was maintained throughout the experiments. Red cells were suspended at a hematocrit of 3% in RPMI 1640 that had been supplemented with 10% v/v human serum, 2 g/l glucose, 4 mM NaOH, 25 µg/ml gentamicin, 1.9 mM glutamine and 25 mM HEPES to form complete medium. For experimental purposes the red cells were then further diluted with the same medium to a final hematocrit of 1.5%. Synchronised parasite cultures were obtained using a combination of sorbitol lysis and gelatin flotation, as described respectively by Jensen et al in Am. J. Trop. Med. Hyg., 1978, 27, 1274 and Lambros et al in J. Parasitol., 1979, 65, 418, thus ensuring that only young ring forms remained. The starting parasitemia in each experiment was between 0.1 and 0.5%.
# A red cell suspension containing only recently synchronised ring parasites was treated with 0.2 µCi of tritiated hypoxanthine per 100 µl of red cell suspension and one of ten chelating agents as identified in the Table was added in complete medium to the suspension in an amount such as to produce an iron binding concentration of 100 µmol of iron per litre (all of the chelators combine with iron in a ratio of 3 moles of chelator:1 mole of iron apart from the chelator number 10, desferrioxamine, which combines in a 1:1 molar ratio). The test cultures were immediately dispersed in 200 µl aliquots into 96 well microculture plates. Each chelator was tested in three or more wells and the whole experiment was carried out at least twice for each chelator. Control cultures were used in each experiment which contained no iron chelator.
# The growth of the P. falciparum parasites was assessed both by light microscopy examination of thin films that had been stained with Giemsa and through measurement of tritiated hypoxanthine uptake, the cell cultures being harvested onto glass fibre filters and radioactivity, in terms of beta emission from each well, being measured in a flat bed liquid scintillation counter as described by Potter et al in Phys. Med. Biol., 1986, 31(4), 361.
# The chelators tested consisted of 1-(2′-carboxyethyl)-3-hydroxy-2-methylpyridin-4-one (R₁ = CH₂CH₂CO₂H, R₂ = CH₃, R₃ = R₄ = H; compound 1) and, for the purposes of comparison with this chelator, nine other chelators not of formula (I) as defined hereinbefore, of which compounds 2 to 9 are 3-hydroxypyridin-4-ones and compound 10 is desferrioxamine. […] These findings were supported by a morphological examination of red cells sampled from the cultures. […] (B) The effect of using different dosage levels than the 100 µmol/l level used in (A) was studied employing the same procedure but using four dosage levels of 10 µmol/l, 25 µmol/l, 50 µmol/l and […]. Only the eight chelators which produced an inhibitory effect at 100 µmol/l were studied and controls containing no iron chelator were again employed.
# P. falciparum [2] = assay: 6 hour pulse exposure at different stages of the first parasite cycle, growth by tritiated hypoxanthine uptake; set-up: dose or concentration left out as unconfirmed; settings: Plasmodium falciparum
# Method: In the case of 2-carboxymethyl-3-hydroxy-1-methylpyridin-4-one, 1-(2-carboxyethyl)-2-ethyl-3-hydroxypyridin-4-one and 1-(3-carboxypropyl)-2-methyl-3-hydroxypyridin-4-one a dosage level of 0.5 µmol/l was required to produce a similar level of growth inhibition and in the case of 3-hydroxy-2-methyl-1-(2-sulphoethyl)pyridin-4-one a dosage level of 1 µmol/l was required. (C) A culture of ring parasites obtained as in (A) was dispensed in 3 ml volumes into separate flasks. Different cultures were exposed during a 6 hour period to the compound 1 in a 100 µmol/l iron binding concentration at different stages during the first parasite cycle and controls containing no chelator were again employed. At the end of each 6 hour pulse, all cultures were washed twice in RPMI 1640 and the pellet was resuspended in complete medium. At 40 hours, when cells from cultures that had not been exposed at any time to a chelator contained segmenting schizonts, tritiated hypoxanthine was added to the incubation medium of all the cultures. Growth of the parasites was assessed after further periods of 42 hours (during second cycle), 65 hours (during third cycle) and 84 hours (during fourth cycle). Each pulse of compound 1 was duplicated in separate flasks. Morphologically, synchrony of the cultures was clearly lost during the third parasite cycle.
# Furthermore, no morphological differences were detected between parasites that were sampled from these cultures and untreated parasites. On the other hand, incubation with compound 1 during the schizont stage (24-30 hours) of parasite development did produce an inhibitory effect on the growth of P. falciparum resulting in 38% and 30% growth inhibition during the second and third cycles. Morphologically these cultures contained a mixed population of degenerate forms and young ring parasites with evidence of red cell reinvasion. Thus it will be seen that the effect of compound 1 is maximised during the early schizont stage of the development of the parasite. However, the employment of 6 hour pulses in order to compare the effects of the compound at different stages, as opposed to the continuous treatment employed in (A), did lead to a lower level of anti-malarial effect.
# MEL cells, clone 585 = assay: Inhibition of growth of murine erythroleukaemia (MEL) cells, cell counting; settings: 50 µmol/l iron binding concentration; after 30 hours; Figure 2
# Method: MEL cells, clone 585, were grown in suspension culture at 37°C in RPMI 1640 that had been supplemented with 13% v/v foetal calf serum, 25 µl/ml gentamicin, 1.9 mM glutamine and 2% diaminopurine as described by Peto et al in Br. J. Haematol., 1983, 54, 623. The cultures were maintained in an atmosphere containing 5% carbon dioxide and passaged every 3-4 days at a seeding concentration of 1-2 x 10⁴/ml to ensure that the cells were continually in logarithmic growth phase. Under these conditions, the doubling time for cell growth was 30-36 hours.
# 10 ml volumes of cell suspension were incubated in 50 ml flasks with each of the ten chelators identified in the Table at a 50 µmol/l iron binding concentration, controls being employed which contained no chelator. 400 µl aliquots were removed in duplicate for growth assessment at 24 hour intervals over the next four days. The experiment was repeated on three separate occasions, the initial cell concentration in each case being 2-3 x 10⁴ cells/ml. Cell growth was assessed both by examination of cultures using light microscopy and by cell counting. At various times throughout each experiment, 400 µl culture was added to 19.6 ml Isoton and the number of particles counted using a Coulter Counter ZN set at threshold 20 and attenuation 0.4
# The effect of the different chelators on growth of the MEL cells after 30 hours was compared with the effect produced after a similar time by the same chelators at a 50 µmol/l iron binding concentration using the procedure described in Example 2(A). The results are illustrated in Figure 2. It will be seen that the compounds 2, 3, 4, 5, 6, 9 and 10 inhibited growth of MEL cells and of P. falciparum, the minimum growth inhibition being 80% and 70% respectively. […] When these two groups of chelators were examined together a close linear correlation (r = 0.978) was found between the degree of growth inhibition produced in both types of cell for each chelator studied. The compound 1 was distinguished from all of the other chelators in being the only one to have no significant inhibitory effect on the growth of MEL cells (<10%) whilst at the same time producing a substantial inhibitory effect on the growth of P. falciparum (>75%).
SMILES,minimal effective concentration (P. falciparum [1]) [µM],growth inhibition of P. falciparum (P. falciparum [1]),percentage inhibition of growth after 30 hours as compared with the controls (P. falciparum [1]),"growth inhibition of MEL cells (MEL cells, clone 585)",further results
Cc1c(O)c(=O)ccn1CCS(=O)(=O)O [3-hydroxy-2-methyl-1-(2-sulphoethyl)-pyridin-4-one],1,,,,
"Cn1ccc(=O)c(O)c1CC(=O)O [(5), 2-carboxymethyl-3-hydroxy-1-methylpyridin-4-one]",0.5,,,,
"CCc1c(O)c(=O)ccn1CCC(=O)O [(12), 1-(2-carboxyethyl)-2-ethyl-3-hydroxypyridin-4-one]",0.5,,,,level of activity against red blood cells parasitized by P. falciparum (relative ranking) (P. falciparum [1]): higher level of activity than compound (9)
"Cc1c(O)c(=O)ccn1CCCC(=O)O [(16), 1-(3-carboxypropyl)-2-methyl-3-hydroxypyridin-4-one]",0.5,,,,level of activity against red blood cells parasitized by P. falciparum (relative ranking) (P. falciparum [1]): higher level of activity than compound (9)
"Cc1c(O)c(=O)ccn1CCC(=O)O [compound 1, 1-(2-carboxyethyl)-3-hydroxy-2-methylpyridin-4-one]",0.1,> 75%,more than 65%,< 10%,"level of activity against red blood cells parasitized by P. falciparum (relative ranking) (P. falciparum [1]): higher level of activity against red blood cells parasitized by P. falciparum than compounds (12) and (16); inhibition (P. falciparum [2]; 6 hour pulse at 6-12 hours of first cycle, read-out: growth inhibition during the third cycle): 0%; inhibition (P. falciparum [2]; 6 hour pulse at 12-18 hours of first cycle, read-out: growth inhibition during the second cycle): 11.4%; inhibition (P. falciparum [2]; 6 hour pulse at 12-18 hours of first cycle, read-out: growth inhibition during the third cycle): 12%; inhibition (P. falciparum [2]; 6 hour pulse at 18-24 hours of first cycle, read-out: growth inhibition during the second cycle): 0%; inhibition (P. falciparum [2]; 6 hour pulse at 18-24 hours of first cycle, read-out: growth inhibition during the third cycle): 0%; inhibition (P. falciparum [2]; 6 hour pulse during the schizont stage (24-30 hours), read-out: growth inhibition during the second cycle): 38%; inhibition (P. falciparum [2]; 6 hour pulse during the schizont stage (24-30 hours), read-out: growth inhibition during the third cycle): 30%"
"Cc1c(O)c(=O)ccn1C [compound 2, 3-hydroxy-1,2-dimethylpyridin-4-one]",,≥ 70%,more than 65%,≥ 80%,
"CC1=NC=CC(=O)C1O (stereo not shown) [compound 3, 3-hydroxy-2-methylpyridin-4-one]",,≥ 70%,more than 65%,≥ 80%,
"Cc1c(O)c(=O)ccn1CCO [compound 4, 3-hydroxy-1-(2-hydroxyethyl)-2-methylpyridin-4-one]",,≥ 70%,more than 65%,≥ 80%,
"Cc1c(O)c(=O)ccn1CCN.Cl [compound 5, 1-(2-aminoethyl)-3-hydroxy-2-methylpyridin-4-one hydrochloride]",,≥ 70%,more than 65%,≥ 80%,
"COCCn1ccc(=O)c(O)c1C [compound 6, 3-hydroxy-1-(2-methoxyethyl)-2-methylpyridin-4-one]",,≥ 70%,more than 65%,≥ 80%,
"Cc1c(O)c(=O)ccn1CCCCCC(=O)O [compound 7, 1-(5-carboxypentyl)-3-hydroxy-2-methylpyridin-4-one]",,little inhibitory effect,less than 12%,little inhibitory effect,
"Cc1c(O)c(=O)ccn1CCCCCC(=O)NCCC(=O)O [compound 8, 1-(5-(N-(2-carboxyethyl)-carbamoyl)pentyl)-3-hydroxy-2-methylpyridin-4-one]",,little inhibitory effect,less than 12%,little inhibitory effect,
"CCc1c(O)c(=O)ccn1C [compound 9, 2-ethyl-3-hydroxy-1-methyl-pyridin-4-one]",,≥ 70%,more than 65%,≥ 80%,
"Cc1c(O)c(=O)ccn1CC(=O)O [compound (9), 1-carboxymethyl-3-hydroxy-2-methylpyridin-4-one]",,,,,level of activity against red blood cells parasitized by P. falciparum (relative ranking) (P. falciparum [1]): somewhat greater than that of the compound 3-hydroxy-2-methyl-1-(2-sulphoethyl)pyridin-4-one
